Results: patent US12077503B2, “Substituted cyclic amides and their use as herbicides” (FMC CORPORATION, priority 2015, dated 2024)

Columns and labels:
Assay type in all cases: in vivo
[1] = test system: ryegrass, Italian (Italian ryegrass, Lolium multiflorum); experiment: Test A postemergence; conditions: for Ryegrass, Italian plant response rating: visual injury rating on 0 to 100 scale (0 no effect, 100 complete control), approx. 10 d
Excerpt: (§1) Seeds of plant species selected from barnyardgrass (Echinochloa crus-galli), Kochia (Kochia scoparia), ragweed (common ragweed, Ambrosia elatior), ryegrass, Italian (Italian ryegrass, Lolium multiflorum), crabgrass, large (Digitaria sanguinalis), giant foxtail (Setaria faberii), green foxtail (Setaria viridis), morningglory (Ipomoea spp.), pigweed (Amaranthus retroflexus), velvetleaf (Abutilon theophrasti), wheat (Triticum aestivum), and corn (Zea mays) were planted into a blend of loam soil and sand and treated preemergence with a directed soil spray using test chemicals formulated in anon-phytotoxic solvent mixture which included a surfactant.
(§2) At the same time, plants selected from these crop and weed species and also blackgrass (Alopecurus myosuroides), and Galium (catchweed bedstraw, Galium aparine) were planted in pots containing the same blend of loam soil and sand and treated with postemergence applications of test chemicals formulated in the same manner. Plants ranged in height from 2 to 10 cm and were in the one- to two-leaf stage for the postemergence treatment. Treated plants and untreated controls were maintained in a greenhouse for approximately 10 d, after which time all treated plants were compared to untreated controls and visually evaluated for injury. Plant response ratings, summarized in Table A, are based on a 0 to 100 scale where 0 is no effect and 100 is complete control. A dash (-) response means no test result.

[2] = test system: pigweed (Amaranthus retroflexus); experiment: Test A postemergence; conditions: for Pigweed plant response rating: visual injury rating on 0 to 100 scale (0 no effect, 100 complete control), approx. 10 d
Excerpt: as §1, §2

[3] = test system: ragweed (common ragweed, Ambrosia elatior); experiment: Test A postemergence; conditions: for Ragweed plant response rating: visual injury rating on 0 to 100 scale (0 no effect, 100 complete control), approx. 10 d
Excerpt: as §1, §2

[4] = test system: barnyardgrass (Echinochloa crus-galli); experiment: Test A postemergence; conditions: for Barnyardgrass plant response rating: 125 g ai/ha, postemergence, visual injury rating on 0 to 100 scale (0 no effect, 100 complete control), approx. 10 d; for Plant response rating, Barnyardgrass: Postemergence, 500 g ai/ha, 0 to 100 scale where 0 is no effect and 100 is complete control
Excerpt: as §1, §2

[5] = test system: giant foxtail (Setaria faberii); experiment: Test A postemergence; conditions: for Foxtail, Giant plant response rating: visual injury rating on 0 to 100 scale (0 no effect, 100 complete control), approx. 10 d
Excerpt: as §1, §2

[6] = test system: Galium (catchweed bedstraw, Galium aparine); experiment: Test A postemergence; conditions: for Galium plant response rating: visual injury rating on 0 to 100 scale (0 no effect, 100 complete control), approx. 10 d
Excerpt: as §1, §2

[7] = test system: blackgrass (Alopecurus myosuroides); experiment: Test A postemergence; conditions: for Blackgrass plant response rating: 125 g ai/ha, postemergence, visual injury rating on 0 to 100 scale (0 no effect, 100 complete control), approx. 10 d; for Plant response rating, Blackgrass: Postemergence, 500 g ai/ha, 0 to 100 scale where 0 is no effect and 100 is complete control
Excerpt: as §1, §2

[8] = test system: Kochia (Kochia scoparia); experiment: Test A postemergence; conditions: for Kochia plant response rating: visual injury rating on 0 to 100 scale (0 no effect, 100 complete control), approx. 10 d
Excerpt: as §1, §2

[9] = test system: corn (Zea mays); experiment: Test A postemergence; conditions: for Corn plant response rating: visual injury rating on 0 to 100 scale (0 no effect, 100 complete control), approx. 10 d
Excerpt: as §1, §2

[10] = test system: wheat (Triticum aestivum); experiment: Test A postemergence; conditions: for Wheat plant response rating: visual injury rating on 0 to 100 scale (0 no effect, 100 complete control), approx. 10 d
Excerpt: as §1, §2

[11] = test system: rice (Oryra sativa); experiment: Test B flooded paddy test; conditions: Flood, 0 to 100 scale where 0 is no effect and 100 is complete control, 13 to 15 d
Method in brief: (§3)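 Response scored visually against untreated controls, 0 = no effect and 100 = complete control, 13–15 d after treatment in the greenhouse. Compounds added to paddy water held 3 cm above soil surface. Treatment given at 2-leaf stage.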

[12] = test system: barnyardgrass (Echinochloa crus-galli); experiment: Test B flooded paddy test; conditions: Flood, 0 to 100 scale where 0 is no effect and 100 is complete control, 13 to 15 d
Method in brief: as §3

[13] = test system: ducksalad (Heteranthera limosa); experiment: Test B flooded paddy test; conditions: Flood, 0 to 100 scale where 0 is no effect and 100 is complete control, 13 to 15 d
Method in brief: as §3

[14] = test system: sedge, umbrella (small-flower umbrella sedge, Cyperus difformis); experiment: Test B flooded paddy test; conditions: Flood, 0 to 100 scale where 0 is no effect and 100 is complete control, 13 to 15 d
Method in brief: as §3

[15] = test system: ryegrass, Italian (Italian ryegrass, Lolium multiflorum); experiment: Test A preemergence; conditions: Preemergence; for Plant response rating, Ryegrass, Italian: 125 g ai/ha, visual injury after approximately 10 d, 0 to 100 scale where 0 is no effect and 100 is complete control; for Ryegrass, Italian plant response rating (0 to 100 scale, 0 is no effect, 100 is complete control): 500 g ai/ha, visual injury approx. 10 d
Excerpt: as §1, §2

[16] = test system: pigweed (Amaranthus retroflexus); experiment: Test A preemergence; conditions: Preemergence; for Plant response rating, Pigweed: 125 g ai/ha, visual injury after approximately 10 d, 0 to 100 scale where 0 is no effect and 100 is complete control; for Pigweed plant response rating (0 to 100 scale, 0 is no effect, 100 is complete control): 500 g ai/ha, visual injury approx. 10 d
Excerpt: as §1, §2

[17] = test system: ragweed (common ragweed, Ambrosia elatior); experiment: Test A preemergence; conditions: Preemergence; for Plant response rating, Ragweed: 125 g ai/ha, visual injury after approximately 10 d, 0 to 100 scale where 0 is no effect and 100 is complete control; for Ragweed plant response rating (0 to 100 scale, 0 is no effect, 100 is complete control): 500 g ai/ha, visual injury approx. 10 d
Excerpt: as §1, §2

[18] = test system: barnyardgrass (Echinochloa crus-galli); experiment: Test A preemergence; conditions: Preemergence; for Plant response rating, Barnyardgrass: 125 g ai/ha, visual injury after approximately 10 d, 0 to 100 scale where 0 is no effect and 100 is complete control; for Barnyardgrass plant response rating (0 to 100 scale, 0 is no effect, 100 is complete control): 500 g ai/ha, visual injury approx. 10 d
Excerpt: as §1, §2

[19] = test system: giant foxtail (Setaria faberii); experiment: Test A preemergence; conditions: Preemergence; for Plant response rating, Foxtail, Giant: 125 g ai/ha, visual injury after approximately 10 d, 0 to 100 scale where 0 is no effect and 100 is complete control; for Foxtail, Giant plant response rating (0 to 100 scale, 0 is no effect, 100 is complete control): 500 g ai/ha, visual injury approx. 10 d
Excerpt: as §1, §2

[20] = test system: Kochia (Kochia scoparia); experiment: Test A preemergence; conditions: Preemergence; for Plant response rating, Kochia: 125 g ai/ha, visual injury after approximately 10 d, 0 to 100 scale where 0 is no effect and 100 is complete control; for Kochia plant response rating (0 to 100 scale, 0 is no effect, 100 is complete control): 500 g ai/ha, visual injury approx. 10 d
Excerpt: as §1, §2

[21] = Postemergence, 500 g ai/ha, 0 to 100 scale where 0 is no effect and 100 is complete control
[22] = 125 g ai/ha, postemergence, visual rating after approx. 10 d, 0 to 100 scale (0 no effect, 100 complete control)

Row | Compound | Plant response rating, Ryegrass, Italian [1, 21] | Plant response rating, Pigweed [2, 21] | Plant response rating, Ragweed [3, 21] | Barnyardgrass plant response rating [4] | Plant response rating, Barnyardgrass [4] | Plant response rating, Foxtail, Giant [5, 21] | Plant response rating, Galium [6, 21] | Blackgrass plant response rating [7] | Plant response rating, Blackgrass [7] | Plant response rating, Kochia [8, 21] | Plant response rating, Corn [9, 21] | Plant response rating, Wheat [10, 21] | Plant response rating, Ryegrass, Italian [15] | Ryegrass, Italian plant response rating (0 to 100 scale, 0 is no effect, 100 is complete control) [15] | Plant response rating, Pigweed [16] | Pigweed plant response rating (0 to 100 scale, 0 is no effect, 100 is complete control) [16] | Plant response rating, Ragweed [17] | Ragweed plant response rating (0 to 100 scale, 0 is no effect, 100 is complete control) [17] | Plant response rating, Barnyardgrass [18] | Barnyardgrass plant response rating (0 to 100 scale, 0 is no effect, 100 is complete control) [18] | further results
1 | O=C1NCC(c2ccnc(C(F)(F)F)c2)C1C(=O)Nc1ccccc1F (racemic) [Compound 513] | 30 | 60 | 20 | 80 | 90 | 80 | 40 | 20 | 40 | 50 | 60 | 30 | 20 | 30 | 0 | 0 | 0 | 0 | 40 | 90 | Ryegrass, Italian plant response rating ([1]; 125 g ai/ha, postemergence): 0; Pigweed plant response rating ([2]; 125 g ai/ha, postemergence): 30; Ragweed plant response rating ([3]; 125 g ai/ha, postemergence): 10; Foxtail, Giant plant response rating ([5]; 125 g ai/ha, postemergence): 80; Galium plant response rating ([6]; 125 g ai/ha, postemergence): 0; Kochia plant response rating ([8]; 125 g ai/ha, postemergence): 20; Corn plant response rating ([9]; 125 g ai/ha, postemergence): 20; Wheat plant response rating ([10]; 125 g ai/ha, postemergence): 0; Plant response rating, Rice ([11]; 250 g ai/ha): 30; Plant response rating, Barnyardgrass ([12]; 250 g ai/ha): 30; Plant response rating, Ducksalad ([13]; 250 g ai/ha): 90; Plant response rating, Sedge, Umbrella ([14]; 250 g ai/ha): 0; Plant response rating, Foxtail, Giant [19]: 90; Foxtail, Giant plant response rating (0 to 100 scale, 0 is no effect, 100 is complete control) [19]: 90; Plant response rating, Kochia [20]: 0; Kochia plant response rating (0 to 100 scale, 0 is no effect, 100 is complete control) [20]: 20
2 | O=C1NCC(c2c(F)cccc2F)C1C(=O)Nc1ccccc1F (racemic) [Compound 515] | 0 | 0 | 0 | 0 | 20 | 0 | 0 | 0 | 0 | 0 | 0 | 0 | 0 | 0 | 0 | 0 | 0 | 0 | 0 | 0 | Ryegrass, Italian plant response rating ([1]; 125 g ai/ha, postemergence): 0; Pigweed plant response rating ([2]; 125 g ai/ha, postemergence): 0; Ragweed plant response rating ([3]; 125 g ai/ha, postemergence): 0; Foxtail, Giant plant response rating ([5]; 125 g ai/ha, postemergence): 0; Galium plant response rating ([6]; 125 g ai/ha, postemergence): 0; Kochia plant response rating ([8]; 125 g ai/ha, postemergence): 0; Corn plant response rating ([9]; 125 g ai/ha, postemergence): 0; Wheat plant response rating ([10]; 125 g ai/ha, postemergence): 0; Plant response rating, Rice ([11]; 250 g ai/ha): 0; Plant response rating, Barnyardgrass ([12]; 250 g ai/ha): 0; Plant response rating, Ducksalad ([13]; 250 g ai/ha): 0; Plant response rating, Sedge, Umbrella ([14]; 250 g ai/ha): 0; Plant response rating, Foxtail, Giant [19]: 0; Foxtail, Giant plant response rating (0 to 100 scale, 0 is no effect, 100 is complete control) [19]: 70; Plant response rating, Kochia [20]: 0; Kochia plant response rating (0 to 100 scale, 0 is no effect, 100 is complete control) [20]: 0
3 | O=C1NCC(c2ccc(F)cc2F)C1C(=O)Nc1ccc(F)cc1F (racemic) [Compound 518] | 0 | 0 | 0 | 0 | 50 | 70 | 20 | 0 | 0 | 0 | 0 | 0 | 0 | 0 | 0 | 0 | 0 | 0 | 0 | 60 | Ryegrass, Italian plant response rating ([1]; 125 g ai/ha, postemergence): 0; Pigweed plant response rating ([2]; 125 g ai/ha, postemergence): 0; Ragweed plant response rating ([3]; 125 g ai/ha, postemergence): 0; Foxtail, Giant plant response rating ([5]; 125 g ai/ha, postemergence): 20; Galium plant response rating ([6]; 125 g ai/ha, postemergence): 0; Kochia plant response rating ([8]; 125 g ai/ha, postemergence): 0; Corn plant response rating ([9]; 125 g ai/ha, postemergence): 0; Wheat plant response rating ([10]; 125 g ai/ha, postemergence): 0; Plant response rating, Rice ([11]; 250 g ai/ha): 0; Plant response rating, Barnyardgrass ([12]; 250 g ai/ha): 0; Plant response rating, Ducksalad ([13]; 250 g ai/ha): 65; Plant response rating, Sedge, Umbrella ([14]; 250 g ai/ha): 0; Plant response rating, Foxtail, Giant [19]: 70; Foxtail, Giant plant response rating (0 to 100 scale, 0 is no effect, 100 is complete control) [19]: 90; Plant response rating, Kochia [20]: 0; Kochia plant response rating (0 to 100 scale, 0 is no effect, 100 is complete control) [20]: 0
4 | O=C1NCC(c2ccc(Oc3ccccc3)cc2)C1C(=O)Nc1ccc(F)cc1F (racemic) [Compound 535] | 0 | 0 | 0 | 0 | 0 | 0 | 0 | 0 | 0 | 0 | 0 | 0 | 0 | 0 | 0 | 0 | 0 | 0 | 0 | 0 | Plant response rating, Ryegrass, Italian [1, 22]: 0; Plant response rating, Pigweed [2, 22]: 0; Plant response rating, Ragweed [3, 22]: 0; Plant response rating, Foxtail, Giant [5, 22]: 0; Plant response rating, Galium [6, 22]: 0; Plant response rating, Kochia [8, 22]: 0; Plant response rating, Corn [9, 22]: 0; Plant response rating, Wheat [10, 22]: 0; Plant response rating, Rice ([11]; 500 g ai/ha): 0; Plant response rating, Barnyardgrass ([12]; 500 g ai/ha): 0; Plant response rating, Ducksalad ([13]; 500 g ai/ha): 20; Plant response rating, Sedge, Umbrella ([14]; 500 g ai/ha): 50; Plant response rating, Foxtail, Giant [19]: 0; Foxtail, Giant plant response rating (0 to 100 scale, 0 is no effect, 100 is complete control) [19]: 0; Plant response rating, Kochia [20]: 0; Kochia plant response rating (0 to 100 scale, 0 is no effect, 100 is complete control) [20]: 0
